ChEMBL document CHEMBL1201862, “PubChem BioAssay data set” (2004)
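The compound was tested at five concentrations on cells cultured in 96-well plates, with a 48-hour exposure period. GI50: concentration for 50% inhibition of growth.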 Active and inactive are the calls of the source. Cut-off read from the data, not from the text of the source: active = GI50 up to about 1.1 µM and inactive = higher.

Assays:
Assay in all cases: NCI anticancer screen, dose series, 48 h
SF-295 = test system: SF-295
SR = test system: SR
HT-29 = test system: HT-29
MOLT-4 = test system: MOLT-4
K562 = test system: K562
OVCAR-8 = test system: OVCAR-8
IGROV-1 = test system: IGROV-1
UACC-257 = test system: UACC-257
SK-MEL-28 = test system: SK-MEL-28
KM12 = test system: KM12
SN12C = test system: SN12C
NCI-H23 = test system: NCI-H23
OVCAR-4 = test system: OVCAR-4
SW-620 = test system: SW-620
OVCAR-5 = test system: OVCAR-5
SF-539 = test system: SF-539
Malme-3M = test system: Malme-3M

Measured: GI50

S=c1nc(N2CCCCC2)ss1
inactive: SF-295 29 µM | SR 14.2 µM | HT-29 28.8 µM | MOLT-4 12.4 µM | K562 18.4 µM | OVCAR-8 28.5 µM | IGROV-1 25.1 µM | UACC-257 19.8 µM | SK-MEL-28 18.4 µM | KM12 17.2 µM | SN12C 17 µM | NCI-H23 47.5 µM | OVCAR-4 38.2 µM | SW-620 24.8 µM | OVCAR-5 > 100 µM | SF-539 18.9 µM | Malme-3M 19.3 µM

COS(=O)CCOC(=O)c1ccccc1SSc1ccccc1C(=O)OCCS(=O)OC (stereo not drawn)
inactive: SF-295 33.2 µM | HT-29 14.1 µM | MOLT-4 3.44 µM | K562 20.6 µM | OVCAR-8 22.3 µM | IGROV-1 > 100 µM | UACC-257 15.6 µM | SK-MEL-28 30.7 µM | KM12 27.1 µM | SN12C 26.1 µM | NCI-H23 20.2 µM | OVCAR-4 16.4 µM | SW-620 31 µM | OVCAR-5 40.9 µM | SF-539 25.3 µM | Malme-3M 18.6 µM

Nc1nc(CCc2n[nH]c(N)n2)n[nH]1
inactive: SF-295 > 100 µM | HT-29 > 100 µM | MOLT-4 > 100 µM | K562 > 100 µM | OVCAR-8 > 100 µM | IGROV-1 > 100 µM | UACC-257 > 100 µM | SK-MEL-28 > 100 µM | KM12 > 100 µM | SN12C > 100 µM | NCI-H23 > 100 µM | OVCAR-4 > 100 µM | SW-620 > 100 µM | OVCAR-5 > 100 µM | SF-539 > 100 µM | Malme-3M > 100 µM

Cc1ccccc1C1=[N+]([O-])c2ccc(Cl)cc2C1=O
inactive: SF-295 14.6 µM | SR 11.8 µM | HT-29 5.01 µM | MOLT-4 3.6 µM | K562 6.12 µM | OVCAR-8 7.14 µM | IGROV-1 15.3 µM | UACC-257 13.1 µM | SK-MEL-28 21.1 µM | KM12 14.1 µM | SN12C 15.2 µM | NCI-H23 17.7 µM | SW-620 25.4 µM | OVCAR-5 23.2 µM | SF-539 17.7 µM | Malme-3M 16.9 µM

C/C(=N\NC(=O)CC(=O)Nc1ccc(Cl)cc1)c1cc2ccccc2oc1=O
inactive: SF-295 > 100 µM | HT-29 > 100 µM | MOLT-4 > 100 µM | K562 > 100 µM | OVCAR-8 > 100 µM | IGROV-1 > 100 µM | UACC-257 > 100 µM | SK-MEL-28 > 100 µM | KM12 > 100 µM | SN12C > 100 µM | NCI-H23 > 100 µM | SW-620 > 100 µM | SF-539 > 100 µM | Malme-3M > 100 µM

CN(C)CC1(C)CC/C(=C\c2ccccc2)C1=O (stereo not drawn)
inactive: SF-295 > 100 µM | HT-29 > 100 µM | MOLT-4 > 100 µM | K562 > 100 µM | OVCAR-8 > 100 µM | IGROV-1 > 100 µM | UACC-257 > 100 µM | SK-MEL-28 > 100 µM | KM12 > 100 µM | SN12C > 100 µM | NCI-H23 > 100 µM | OVCAR-4 > 100 µM | SW-620 63.1 µM | OVCAR-5 > 100 µM | SF-539 > 100 µM | Malme-3M > 100 µM

O=C1CCCC[C@H]1[C@H]1CCC[C@@H]([C@H]2CCCCC2=O)C1=O
inactive: SF-295 > 100 µM | SR > 100 µM | HT-29 > 100 µM | MOLT-4 > 100 µM | K562 > 100 µM | IGROV-1 > 100 µM | UACC-257 > 100 µM | SK-MEL-28 > 100 µM | KM12 > 100 µM | SN12C > 100 µM | NCI-H23 > 100 µM | OVCAR-4 > 100 µM | SW-620 > 100 µM | OVCAR-5 > 100 µM | SF-539 > 100 µM | Malme-3M > 100 µM

Cc1ccc(S(=O)(=O)CNC(=S)CCCC(=S)NCS(=O)(=O)c2ccc(C)cc2)cc1
inactive: SF-295 > 100 µM | SR 32.7 µM | HT-29 > 100 µM | MOLT-4 22.2 µM | K562 53.6 µM | OVCAR-8 > 100 µM | IGROV-1 > 100 µM | UACC-257 > 100 µM | KM12 > 100 µM | SN12C > 100 µM | NCI-H23 35.4 µM | OVCAR-4 > 100 µM | SW-620 53.5 µM | OVCAR-5 > 100 µM | SF-539 > 100 µM | Malme-3M 50.7 µM

CCCN(CCCCC(NC(C)=O)C(=O)NCc1ccccc1)C(=O)N(C)N=O (stereo not drawn)
inactive: SF-295 > 100 µM | HT-29 > 100 µM | MOLT-4 92 µM | K562 > 100 µM | OVCAR-8 > 100 µM | IGROV-1 > 100 µM | UACC-257 > 100 µM | SK-MEL-28 > 100 µM | KM12 > 100 µM | SN12C > 100 µM | NCI-H23 > 100 µM | OVCAR-4 > 100 µM | SW-620 > 100 µM | OVCAR-5 > 100 µM | SF-539 > 100 µM | Malme-3M > 100 µM
